Results taken from article PMC7595966, “Scutellarin is Highly Likely to be Responsible for Drug-Drug Interactions Mediated by Hepatic Organic Anion-Transporting Polypeptide1B3” (Pharmaceutical Research, 2020).

How the values were obtained:
[1] = target: T1, rOATP1B2 (Rattus norvegicus, UniProt Q9QZX8); assay: cell-based
T1 construct: gene Slco1b2
T1 sequence (Q9QZX8 1-687): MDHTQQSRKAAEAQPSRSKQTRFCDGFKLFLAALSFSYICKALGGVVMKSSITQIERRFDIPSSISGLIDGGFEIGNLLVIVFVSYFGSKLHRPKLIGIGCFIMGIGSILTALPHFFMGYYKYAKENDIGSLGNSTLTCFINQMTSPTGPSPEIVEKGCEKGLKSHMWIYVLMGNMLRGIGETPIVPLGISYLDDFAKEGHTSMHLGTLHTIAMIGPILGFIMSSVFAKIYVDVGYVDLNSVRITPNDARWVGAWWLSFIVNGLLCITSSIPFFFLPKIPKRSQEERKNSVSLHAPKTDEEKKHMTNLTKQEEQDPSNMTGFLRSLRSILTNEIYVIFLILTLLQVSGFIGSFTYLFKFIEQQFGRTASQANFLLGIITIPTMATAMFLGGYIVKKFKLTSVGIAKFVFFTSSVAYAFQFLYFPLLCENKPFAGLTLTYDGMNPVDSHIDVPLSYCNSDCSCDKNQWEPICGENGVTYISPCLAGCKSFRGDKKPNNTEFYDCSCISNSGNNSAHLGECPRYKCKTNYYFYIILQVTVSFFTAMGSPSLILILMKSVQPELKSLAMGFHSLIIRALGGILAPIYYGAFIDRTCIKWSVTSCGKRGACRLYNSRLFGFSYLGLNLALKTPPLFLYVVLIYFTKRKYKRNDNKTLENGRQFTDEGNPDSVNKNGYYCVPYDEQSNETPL

[2] = target: T2, hOATP1B3 (Homo sapiens, UniProt Q9NPD5); assay: cell-based
T2 construct: gene SLCO1B3
T2 sequence (Q9NPD5 1-702): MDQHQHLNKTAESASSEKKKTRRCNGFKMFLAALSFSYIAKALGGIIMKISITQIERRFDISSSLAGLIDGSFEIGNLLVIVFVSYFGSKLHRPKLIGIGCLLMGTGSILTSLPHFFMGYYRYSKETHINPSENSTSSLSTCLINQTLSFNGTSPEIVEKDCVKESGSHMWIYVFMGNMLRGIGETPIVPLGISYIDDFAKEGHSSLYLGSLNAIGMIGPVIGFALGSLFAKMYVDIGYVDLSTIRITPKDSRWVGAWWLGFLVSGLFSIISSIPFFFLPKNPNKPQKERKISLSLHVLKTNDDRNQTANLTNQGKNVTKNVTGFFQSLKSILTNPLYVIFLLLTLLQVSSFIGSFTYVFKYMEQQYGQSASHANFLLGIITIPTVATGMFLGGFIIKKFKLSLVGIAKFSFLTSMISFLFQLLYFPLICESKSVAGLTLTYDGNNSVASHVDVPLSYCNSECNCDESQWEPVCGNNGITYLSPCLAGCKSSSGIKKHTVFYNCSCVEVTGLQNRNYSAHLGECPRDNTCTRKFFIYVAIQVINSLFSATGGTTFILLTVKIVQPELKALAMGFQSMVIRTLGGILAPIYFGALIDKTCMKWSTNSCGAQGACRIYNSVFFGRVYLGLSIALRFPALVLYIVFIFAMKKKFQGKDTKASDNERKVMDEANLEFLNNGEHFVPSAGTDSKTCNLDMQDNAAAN

Q: What does the source list for `O=C(O)[C@H]1O[C@@H](Oc2cc3oc(-c4ccc(O)cc4)cc(=O)c3c(O)c2O)[C@H](O)[C@@H](O)[C@@H]1O` [Scutellarin]?
A: IC50 [1]: 27.6 ± 3.97 µM; IC50 [2]: 45.5 ± 6.67 µM
